Results reported in ChEMBL document CHEMBL1201862, “PubChem BioAssay data set” (2004).
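Each compound was tested at five concentrations against cells in 96-well plates for 48 hours. At the GI50, growth is halved.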 Active and inactive are the calls of the source. No stated cut-off is given here; in the data, active = GI50 up to about 1.1 µM and inactive = higher.

How the values were obtained:
Experiment in all cases: growth of human tumour cells (NCI), 48 h
786-0 = system: 786-0
A498 = system: A498
A549 = system: A549
CAKI-1 = system: CAKI-1
DU-145 = system: DU-145
HOP-62 = system: HOP-62
HOP-92 = system: HOP-92
Hs-578T = system: Hs-578T
LOX IMVI = system: LOX IMVI
MCF7 = system: MCF7
OVCAR-4 = system: OVCAR-4
PC-3 = system: PC-3
RXF 393 = system: RXF 393
SF-539 = system: SF-539
SK-MEL-2 = system: SK-MEL-2
SK-OV-3 = system: SK-OV-3
UACC-257 = system: UACC-257
UACC-62 = system: UACC-62
UO-31 = system: UO-31

SMILES | GI50 (786-0) | GI50 (A498) | GI50 (A549) | GI50 (CAKI-1) | GI50 (DU-145) | GI50 (HOP-62) | GI50 (HOP-92) | GI50 (Hs-578T) | GI50 (LOX IMVI) | GI50 (MCF7) | GI50 (OVCAR-4) | GI50 (PC-3) | GI50 (RXF 393) | GI50 (SF-539) | GI50 (SK-MEL-2) | GI50 (SK-OV-3) | GI50 (UACC-257) | GI50 (UACC-62) | GI50 (UO-31)
O=C(O)CN(CC(=O)O)c1ccccc1 | > 100 µM (inactive) | > 100 µM (inactive) | > 100 µM (inactive) | > 100 µM (inactive) | > 100 µM (inactive) | > 100 µM (inactive) | 48.9 µM (inactive) | 80 µM (inactive) | > 100 µM (inactive) | > 100 µM (inactive) | 81.7 µM (inactive) | 56 µM (inactive) | > 100 µM (inactive) | > 100 µM (inactive) | 33.2 µM (inactive) | > 100 µM (inactive) | 18.2 µM (inactive) | 32 µM (inactive) | > 100 µM (inactive)
COc1cc2c(cc1OCCCC(=O)Nc1cc(C(=O)NCCCN(C)C)n(C)n1)N=CC1CCCN1C2=O (centres undefined) | 6.46 µM (inactive) | 2.82 µM (inactive) | > 19.7 µM (inactive) | 21.6 µM (inactive) | 12.9 µM (inactive) | > 20.8 µM (inactive) | 6.56 µM (inactive) | 11 µM (inactive) | 7.71 µM (inactive) | 10.1 µM (inactive) | 6.44 µM (inactive) | 17.1 µM (inactive) | 9.18 µM (inactive) | 9.04 µM (inactive) | 10.8 µM (inactive) | > 42.2 µM (inactive) | 7.45 µM (inactive) | 4.24 µM (inactive) | 8.65 µM (inactive)
CC1(C)C(=O)C2(OS(=O)(=O)C(F)(F)F)CCC1C2 (centres undefined) | > 100 µM (inactive) | > 100 µM (inactive) | > 100 µM (inactive) | > 100 µM (inactive) | > 100 µM (inactive) | > 100 µM (inactive) | > 100 µM (inactive) | > 100 µM (inactive) | > 100 µM (inactive) | > 100 µM (inactive) | > 100 µM (inactive) | > 100 µM (inactive) | > 100 µM (inactive) | > 100 µM (inactive) | > 100 µM (inactive) | > 100 µM (inactive) | > 100 µM (inactive) | > 100 µM (inactive) | > 100 µM (inactive)
COC(=O)C1=C(C)C=C(N2CCOCC2)C(C(=O)OC)C1c1ccccc1 (centres undefined) | > 10 µM (inactive) | > 10 µM (inactive) | > 10 µM (inactive) | > 10 µM (inactive) | > 10 µM (inactive) | > 10 µM (inactive) | > 10 µM (inactive) | > 10 µM (inactive) | > 10 µM (inactive) | > 10 µM (inactive) | > 10 µM (inactive) | > 10 µM (inactive) | > 10 µM (inactive) | > 10 µM (inactive) | > 10 µM (inactive) | > 10 µM (inactive) | > 10 µM (inactive) | – | > 10 µM (inactive)
CC1=NN(C(=O)CC(=O)Nc2ccccc2)C(=O)C1/N=N/c1ccc(C(=O)O)cc1 (centres undefined) | > 100 µM (inactive) | > 100 µM (inactive) | > 100 µM (inactive) | > 100 µM (inactive) | > 100 µM (inactive) | 75.9 µM (inactive) | 22.1 µM (inactive) | 78.7 µM (inactive) | > 100 µM (inactive) | > 100 µM (inactive) | > 100 µM (inactive) | > 100 µM (inactive) | > 100 µM (inactive) | 84.7 µM (inactive) | > 100 µM (inactive) | – | > 100 µM (inactive) | > 100 µM (inactive) | > 100 µM (inactive)
N=c1oc2c(Br)cc(Br)cc2cc1C(=O)Nc1ccccn1 | 36.5 µM (inactive) | > 100 µM (inactive) | 65.3 µM (inactive) | > 100 µM (inactive) | 81.5 µM (inactive) | 53 µM (inactive) | > 100 µM (inactive) | 64.4 µM (inactive) | > 100 µM (inactive) | 39.9 µM (inactive) | 68.9 µM (inactive) | 38.5 µM (inactive) | 75.3 µM (inactive) | 31.8 µM (inactive) | 30.1 µM (inactive) | > 100 µM (inactive) | > 100 µM (inactive) | 74.8 µM (inactive) | –
C=C1C(=O)OC2/C=C(\CO)CC/C=C(\CO)CC(OC(=O)C(C)C)C12 (centres undefined) | 5.52 µM (inactive) | 21.6 µM (inactive) | 20.1 µM (inactive) | 1.9 µM (inactive) | 12.7 µM (inactive) | 19.2 µM (inactive) | 1.27 µM (inactive) | 19.9 µM (inactive) | 13.5 µM (inactive) | 2.66 µM (inactive) | 19.4 µM (inactive) | 16.6 µM (inactive) | 5.83 µM (inactive) | 14.9 µM (inactive) | 16.5 µM (inactive) | 27.2 µM (inactive) | 12.2 µM (inactive) | 14.1 µM (inactive) | 14 µM (inactive)
CCC/C(Cl)=N/OC(NC(=O)OCC)(C(F)(F)F)C(F)(F)F | 17.4 µM (inactive) | > 100 µM (inactive) | > 100 µM (inactive) | 20.6 µM (inactive) | > 100 µM (inactive) | > 100 µM (inactive) | 20.3 µM (inactive) | 34.5 µM (inactive) | 17.9 µM (inactive) | 23.6 µM (inactive) | 17.6 µM (inactive) | 98.9 µM (inactive) | 19 µM (inactive) | 16.7 µM (inactive) | > 100 µM (inactive) | – | 20.6 µM (inactive) | 48.1 µM (inactive) | 19.6 µM (inactive)
Cc1ccnc2[nH]c3ccccc3c(=O)c12 | 41.2 µM (inactive) | 28.8 µM (inactive) | – | 8.41 µM (inactive) | 30.2 µM (inactive) | 43.8 µM (inactive) | 41.6 µM (inactive) | 16.3 µM (inactive) | 19.5 µM (inactive) | 21.8 µM (inactive) | 29 µM (inactive) | 21.8 µM (inactive) | 15.6 µM (inactive) | 17.9 µM (inactive) | 25.2 µM (inactive) | 43.5 µM (inactive) | 39.4 µM (inactive) | 16.9 µM (inactive) | 18 µM (inactive)
Nc1ccc(-c2nc3cc(F)ccc3s2)cc1Cl | 25.8 µM (inactive) | 3.07 µM (inactive) | 7.46 µM (inactive) | 8.67 µM (inactive) | 63.2 µM (inactive) | 8.36 µM (inactive) | 25.5 µM (inactive) | 27.1 µM (inactive) | > 77.4 µM (inactive) | 0.0102 µM (active) | 17.1 µM (inactive) | 20 µM (inactive) | 24 µM (inactive) | 20.2 µM (inactive) | 41.1 µM (inactive) | 19.1 µM (inactive) | 72.6 µM (inactive) | 39.7 µM (inactive) | 31.8 µM (inactive)
CSc1ccccc1P(CCP(c1ccccc1SC)c1ccccc1SC)c1ccccc1SC | 15.6 µM (inactive) | 40.4 µM (inactive) | 3.96 µM (inactive) | > 84.5 µM (inactive) | 54.5 µM (inactive) | 8.61 µM (inactive) | 61.1 µM (inactive) | 28.7 µM (inactive) | 22.6 µM (inactive) | 1.95 µM (inactive) | 14.3 µM (inactive) | 0.912 µM (active) | 30.8 µM (inactive) | 34.1 µM (inactive) | 53.3 µM (inactive) | 16.3 µM (inactive) | 13.5 µM (inactive) | > 86.5 µM (inactive) | > 44.4 µM (inactive)
